Results as given in ChEMBL document CHEMBL3227967, “Quantitative structure-activity relationships in 1-aryl-2-(alkylamino)ethanol antimalarials” (J Med Chem, 1979).

System: Plasmodium berghei
Experiment: Antimalarial activity against Plasmodium berghei
Format: functional

CCCCN(CCCC)CC(O)c1cc(-c2ccc(Cl)cc2)nc2cc(Cl)ccc12 (stereo not drawn)
log(1/C): 3.91

CCCCN(CCCC)CC(O)c1cc(-c2ccc(Cl)c(Cl)c2)nc2c(Cl)cc(Cl)cc12 (stereo not drawn)
log(1/C): 4.21

CCCCN(CCCC)CC(O)c1cc(-c2ccc(OC)c(OC)c2)nc2ccc(Cl)cc12 (stereo not drawn)
log(1/C): 3.33

CCCCN(CCCC)CC(O)c1cc2c(Br)cccc2c2cc(Br)ccc12 (stereo not drawn)
log(1/C): 2.9

CCCCCCCN(CCCCCCC)CC(O)c1cc2cccc(Cl)c2c2ccccc12 (stereo not drawn)
log(1/C): 2.82

CCCCN(CCCC)CC(O)c1cc2ccc(C(F)(F)F)cc2c2ccccc12 (stereo not drawn)
log(1/C): 2.8

CCCCN(CCCC)CC(O)c1cc2ccccc2c2cc(Cl)ccc12 (stereo not drawn)
log(1/C): 2.77

CCCCN(CCCC)CC(O)c1cc2ccccc2c2c(Cl)cccc12 (stereo not drawn)
log(1/C): 2.77

CCCCN(CCCC)CC(O)c1cc2c(Cl)cccc2c2ccccc12 (stereo not drawn)
log(1/C): 2.65

OC(CC1CCCCN1)c1cc2cc(Cl)ccc2c2ccccc12 (stereo not drawn)
log(1/C): 2.56

CCCCCCCN(CCCCCCC)CCC(O)c1cc2ccc(C(F)(F)F)cc2c2cc(C(F)(F)F)ccc12 (stereo not drawn)
log(1/C): 3.2

CCCCN(CCCC)CC(O)c1c(Br)c2cc(Br)ccc2c2ccc(Br)cc12 (stereo not drawn)
log(1/C): 3.09

CCCCN(CCCC)CC(O)c1cc2cc(Br)ccc2c2cc(SC)ccc12 (stereo not drawn)
log(1/C): 3.04

CCCCCCCCN(CCCCCCCC)CCC(O)c1cc2c(O)cccc2c2ccccc12 (stereo not drawn)
log(1/C): 2.65

CCCCCCCN(CCCCCCC)CC(O)c1cc2ccccc2c2cc(Cl)ccc12 (stereo not drawn)
log(1/C): 2.59

CCCCN(CCCC)CC(O)c1cc2ccccc2c2cc(F)ccc12 (stereo not drawn)
log(1/C): 2.58

CCCCCCCN(CCCCCCC)CC(O)c1cc2c(Cl)cccc2c2ccccc12 (stereo not drawn)
log(1/C): 2.56

CCCCCCCCN(CCCCCCCC)CC(O)c1cc2ccccc2c2ccccc12 (stereo not drawn)
log(1/C): 2.54

OC(CC1CCCCN1)c1cc2ccccc2c2ccccc12 (stereo not drawn)
log(1/C): 2.53

CCCCCCN(CCCCCC)CCC(O)c1cc2c(O)cccc2c2ccccc12 (stereo not drawn)
log(1/C): 2.52

CCCCN(CCCC)CC(O)c1c(Br)c2ccccc2c2ccccc12 (stereo not drawn)
log(1/C): 2.51

CCCCN(CCCC)CC(O)c1cc2ccccc2c2ccc(Cl)cc12 (stereo not drawn)
log(1/C): 2.51

CCCCN(CCCC)CC(O)c1cc2ccc(Cl)cc2c2cc(OC)ccc12 (stereo not drawn)
log(1/C): 2.49

CCCCN(CCCC)CCC(O)c1cc2ccccc2c2ccccc12 (stereo not drawn)
log(1/C): 2.45

CCCCCCCN(CCCCCCC)CC(O)c1cc2ccc(Cl)cc2c2ccccc12 (stereo not drawn)
log(1/C): 2.44

CCCCN(CCCC)CC(O)c1cc2ccc(F)cc2c2ccccc12 (stereo not drawn)
log(1/C): 2.43

CCCCCCN(CCCCCC)CC(O)c1cc2ccccc2c2ccccc12 (stereo not drawn)
log(1/C): 2.4

CCCCCCCN(CCCCCCC)CC(O)c1cc2ccc(F)cc2c2ccccc12 (stereo not drawn)
log(1/C): 2.32

CCCCN(CCCC)CC(O)c1cc2ccccc2c2cccc(Cl)c12 (stereo not drawn)
log(1/C): 2.32

CC(C)(C)NCC(O)c1cc2ccccc2c2ccccc12 (stereo not drawn)
log(1/C): 2.09

CCCCN(CCCC)CCC(O)c1cc(-c2ccc(Cl)c(Cl)c2)nc2c(Cl)cc(Cl)cc12 (stereo not drawn)
log(1/C): 4.67

CCCCN(CCCC)CC(O)c1cc(-c2ccc(Cl)cc2)nc2c(C(F)(F)F)cc(Cl)cc12 (stereo not drawn)
log(1/C): 4.61

CCCCN(CCCC)CC(O)c1cc(-c2ccc(I)cc2)nc2c(Cl)cc(Cl)cc12 (stereo not drawn)
log(1/C): 4.5

OC(CC1CCCCN1)c1cc(-c2ccc(Cl)cc2)nc2c(C(F)(F)F)cccc12 (stereo not drawn)
log(1/C): 4.45

CCCCN(CCCC)CC(O)c1cc(-c2ccc(Cl)cc2)nc2cc(Cl)c(C)cc12 (stereo not drawn)
log(1/C): 4.22

CCCCN(CCCC)CC(O)c1c(F)c(-c2ccc(Cl)cc2)nc2c(Cl)cc(Cl)cc12 (stereo not drawn)
log(1/C): 4.22

CCCCN(CCCC)CC(O)c1cc(-c2ccc(I)cc2)nc2ccc(I)cc12 (stereo not drawn)
log(1/C): 4.22

CCCCN(CCCC)CC(O)c1cc(-c2ccc(Cl)cc2)nc2cc(C(F)(F)F)ccc12 (stereo not drawn)
log(1/C): 4.14

Cc1cc(C)c2nc(-c3ccc(Cl)cc3)cc(C(O)CC3CCCCN3)c2c1 (stereo not drawn)
log(1/C): 4.04

CCCCN(CCCC)CC(O)c1cc(-c2ccc(C(F)(F)F)cc2)nc2c(Cl)cc(Cl)cc12 (stereo not drawn)
log(1/C): 4.04

CCCCN(CCCC)CC(O)c1cc(-c2ccc(F)cc2)nc2c(Cl)cc(Cl)cc12 (stereo not drawn)
log(1/C): 3.98

OC(CC1CCCCN1)c1cc(-c2ccc(Cl)cc2)nc2c(Cl)cc(Cl)cc12 (stereo not drawn)
log(1/C): 3.97

Cc1ccc(-c2cc(C(O)CC3CCCCN3)c3cccc(C(F)(F)F)c3n2)cc1 (stereo not drawn)
log(1/C): 3.94

CCCCN(CCCC)CC(O)c1cc(-c2ccc(Cl)cc2)nc2c(C(F)(F)F)cc(OC)cc12 (stereo not drawn)
log(1/C): 3.93

CCCCN(CCCC)CC(O)c1cc(-c2cccc(C(F)(F)F)c2)nc2c(Cl)cc(Cl)cc12 (stereo not drawn)
log(1/C): 3.93

CCCCN(CCCC)CC(O)c1cc(-c2ccc(Cl)cc2)nc2c(C)cc(C)cc12 (stereo not drawn)
log(1/C): 3.9

OC(CC1CCCCN1)c1cc(-c2ccccc2)nc2c(Cl)cc(Cl)cc12 (stereo not drawn)
log(1/C): 3.9

COc1ccc(-c2cc(C(O)CC3CCCCN3)c3cccc(C(F)(F)F)c3n2)cc1 (stereo not drawn)
log(1/C): 3.88

CCCCNCC(O)c1cc(-c2ccc(Cl)cc2)nc2cc(Cl)c(OC)cc12 (stereo not drawn)
log(1/C): 3.88

CCCCN(CCCC)CC(O)c1cc(-c2ccc(Cl)cc2)nc2cc(Cl)c(OC)cc12 (stereo not drawn)
log(1/C): 3.87

CCCCN(CCCC)CC(O)c1c(Cl)c(-c2ccc(Cl)cc2)nc2c(Cl)cc(Cl)cc12 (stereo not drawn)
log(1/C): 3.87

CCCCCCN(CCCCCC)CC(O)c1cc(-c2ccc(Cl)cc2)nc2c(C)c(Cl)ccc12 (stereo not drawn)
log(1/C): 3.85

CN1CCN(CC(O)c2cc(-c3ccc(Cl)cc3)nc3c(Cl)cc(Cl)cc23)CC1 (stereo not drawn)
log(1/C): 3.81

CCCCN(CCCC)CC(O)c1cc(-c2ccc(Cl)cc2)nc2ccc(Cl)cc12 (stereo not drawn)
log(1/C): 3.8

CC(C)N(C)CC(O)c1cc(-c2ccc(Cl)cc2)nc2c(Cl)cc(Cl)cc12 (stereo not drawn)
log(1/C): 3.72

Cc1cccc2c(C(O)CC3CCCCN3)cc(-c3ccc(F)cc3)nc12 (stereo not drawn)
log(1/C): 3.72

OC(CC1CCCCN1)c1c2c(nc3c(Cl)cc(Cl)cc13)-c1ccc(Cl)cc1CC2 (stereo not drawn)
log(1/C): 3.69

CCCCN(CCCC)CC(O)c1cc(-c2ccc(Cl)cc2)nc2c(C(F)(F)F)cccc12 (stereo not drawn)
log(1/C): 3.69

CCCCCCN(CCCCCC)CC(O)c1cc(-c2ccc(Cl)c(Cl)c2)nc2cc(C(F)(F)F)ccc12 (stereo not drawn)
log(1/C): 3.68

OC(CC1CCCCN1)c1cc(-c2ccccc2)nc2c(C(F)(F)F)cccc12 (stereo not drawn)
log(1/C): 3.68

Cc1cccc2c(C(O)CC3CCCCN3)cc(-c3ccc(Cl)cc3)nc12 (stereo not drawn)
log(1/C): 3.67

CCCCN(CCCC)CC(O)c1cc(-c2ccc(Cl)cc2Cl)nc2c(Cl)cc(Cl)cc12 (stereo not drawn)
log(1/C): 3.66

OC(CNCc1ccccc1)c1cc(-c2ccc(Cl)c(Cl)c2)nc2c(Cl)cc(Cl)cc12 (stereo not drawn)
log(1/C): 3.66

CCCCN(CCCC)CC(O)c1cc(-c2ccc(OC)cc2)nc2cc(Cl)c(Cl)cc12 (stereo not drawn)
log(1/C): 3.63

CCCCN(CCCC)CC(O)c1cc(-c2ccc(Cl)cc2)nc2cc(F)ccc12 (stereo not drawn)
log(1/C): 3.62

Cc1cc(C)c2nc(-c3ccc(F)cc3)cc(C(O)CC3CCCCN3)c2c1 (stereo not drawn)
log(1/C): 3.61

OC(CNC1CC1)c1cc(-c2ccc(Cl)c(Cl)c2)nc2c(Cl)cc(Cl)cc12 (stereo not drawn)
log(1/C): 3.6

OC(CC1CCCCN1)c1c2c(nc3c(Cl)cc(Cl)cc13)-c1cccc(Cl)c1CC2 (stereo not drawn)
log(1/C): 3.6

OC(CNC12CC3CC(CC(C3)C1)C2)c1cc(-c2ccc(Cl)cc2)nc2c(Cl)cc(Cl)cc12 (stereo not drawn)
log(1/C): 3.59

CCCCCCN(CCCCCC)CC(O)c1cc(-c2ccc(Cl)cc2)nc2cc(C(F)(F)F)ccc12 (stereo not drawn)
log(1/C): 2.85

OC(CNC1CCCC1)c1cc(-c2ccc(Cl)cc2)nc2c(Cl)cc(Cl)cc12 (stereo not drawn)
log(1/C): 3.53

CC1CCCNC1CC(O)c1cc(-c2ccccc2)nc2cc(Cl)ccc12 (stereo not drawn)
log(1/C): 3.52

OC(CN1CCCCC1)c1cc(-c2ccc(Cl)cc2)nc2c(Cl)cc(Cl)cc12 (stereo not drawn)
log(1/C): 3.49

CCCCN(CCCC)CC(O)c1cc(-c2ccc(Cl)cc2)nc2cc(I)ccc12 (stereo not drawn)
log(1/C): 3.43

Cc1cccc2c(C(O)CC3CCCCN3)cc(-c3ccccc3)nc12 (stereo not drawn)
log(1/C): 3.38

CCCCCCN(CCCCCC)CC(O)c1cc(-c2ccc(OC)cc2)nc2cc(Cl)c(OC)cc12 (stereo not drawn)
log(1/C): 3.38

CCCCCCN(CCCCCC)CC(O)c1cc(-c2ccc(Cl)cc2)nc2c(Cl)cc(Cl)cc12 (stereo not drawn)
log(1/C): 3.37

CCCCCCN(CCCCCC)CC(O)c1cc(-c2ccc(Cl)c(Cl)c2)nc2ccc(OC)cc12 (stereo not drawn)
log(1/C): 3.35

CCCCCCN(CCCCCC)CC(O)c1cc(-c2ccc(OC)cc2)nc2cc(Cl)c(Cl)cc12 (stereo not drawn)
log(1/C): 3.35

CCCCCCN(CCCCCC)CC(O)c1cc(-c2ccccc2)nc2c(Cl)cc(Cl)cc12 (stereo not drawn)
log(1/C): 3.35

CCCCN(CCCC)CC(O)c1cc(-c2ccc(Cl)c(Cl)c2)nc2ccc(OC)cc12 (stereo not drawn)
log(1/C): 3.33

CCCCCCN(CCCCCC)CC(O)c1cc(-c2ccc(OC)c(OC)c2)nc2ccc(Cl)cc12 (stereo not drawn)
log(1/C): 3.32

CCN(CC)CC(O)c1cc(-c2ccc(Cl)c(Cl)c2)nc2cc(OC)ccc12 (stereo not drawn)
log(1/C): 3.32

CCCCN(CCCC)CC(O)c1cc(-c2ccc(OC)cc2)nc2cc(Cl)c(OC)cc12 (stereo not drawn)
log(1/C): 3.32

CCCCCCN(CCCCCC)CC(O)c1cc(-c2cccc(C(F)(F)F)c2)nc2c(Cl)cc(Cl)cc12 (stereo not drawn)
log(1/C): 3.32

CCCCCCN(CCCCCC)CC(O)c1cc(-c2ccc(Cl)cc2)nc2c(Cl)cccc12 (stereo not drawn)
log(1/C): 3.32

CCCCCCN(CCCCCC)CC(O)c1cc(-c2ccc(Cl)cc2)nc2c(C)cc(C)cc12 (stereo not drawn)
log(1/C): 3.75

CCCCN(CCCC)CC(O)c1cc(-c2ccc(Cl)cc2)nc2c(Cl)cc(Cl)cc12 (stereo not drawn)
log(1/C): 4.03
